Data on five compounds can be found in ChEMBL document CHEMBL5543097, “Synthesis and structure-activity relationships of novel 14-membered 2-fluoro ketolides with structural modification at the C11 position” (Eur J Med Chem, 2024).

Converted amounts (≈) assume the structure as drawn.

Data set [1] deals with Moraxella catarrhalis. The experiment in a line: Antibacterial activity against Moraxella catarrhalis BCA 19-5 assessed as inhibition of bacterial growth incubated for 24 hrs by CLSI based broth microdilution method. Format: functional. As to conditions: Moraxella catarrhalis, BCA 19-5, 24 h, read-out: MIC. In general terms: Broth dilution looks for growth in wells or tubes with falling amounts of substance.

Data set [2] has as its system Staphylococcus epidermidis. As to the kind of experiment: Antibacterial activity against erythromycin-resistant Staphylococcus epidermidis 19-6 assessed as inhibition of visible bacterial growth incubated for 18 hrs by broth microdilution method. The format is functional.
Data set [3] concerns Haemophilus influenzae. The experiment in a line: Antibacterial activity against Haemophilus influenzae HIN 20-18 assessed as inhibition of bacterial growth incubated for 20 to 24 hrs by CLSI based broth microdilution method. The format is functional. Conditions: time 20-24 hrs.
For data set [4], the system named is Staphylococcus epidermidis. As to the kind of experiment: Antibacterial activity against erythromycin-resistant Staphylococcus epidermidis 19-9 assessed as inhibition of visible bacterial growth incubated for 18 hrs by broth microdilution method. The format is functional.
The subject of data set [5] is Streptococcus pneumoniae. As to the kind of experiment: Antibacterial activity against erythromycin-resistant Streptococcus pneumoniae SPN19-8 assessed as inhibition of visible bacterial growth incubated for 18 hrs by broth microdilution method. Format: functional.
Data set [6] has as its system Streptococcus pneumoniae. The experiment in a line: Antibacterial activity against erythromycin-resistant Streptococcus pneumoniae SPN19-13 assessed as inhibition of visible bacterial growth incubated for 18 hrs by broth microdilution method. Format: functional.
Data set [7] has as its system Streptococcus agalactiae. As to the kind of experiment: Antibacterial activity against erythromycin-resistant Streptococcus agalactiae 19-9 assessed as inhibition of visible bacterial growth incubated for 18 hrs by broth microdilution method. Format: functional.
For data set [8], the system named is Streptococcus pyogenes. As to the kind of experiment: Antibacterial activity against erythromycin-resistant Streptococcus pyogenes ATCC 19615 assessed as inhibition of visible bacterial growth incubated for 18 hrs by broth microdilution method. The format is functional.
Data set [9] relates to Haemophilus influenzae. The experiment in a line: Antibacterial activity against Haemophilus influenzae HIN 19-18 assessed as inhibition of bacterial growth incubated for 20 to 24 hrs by CLSI based broth microdilution method. The format is functional. Conditions: HIN 19-18, time 20-24 hrs.
In data set [10] the test system is Haemophilus influenzae. The experiment in a line: Antibacterial activity against Haemophilus influenzae HIN 19-15 assessed as inhibition of bacterial growth incubated for 20 to 24 hrs by CLSI based broth microdilution method. Format: functional. As to conditions: time 20-24 hrs.
The subject of data set [11] is Staphylococcus epidermidis. The experiment in a line: Antibacterial activity against erythromycin-resistant Staphylococcus epidermidis 19-5 assessed as inhibition of visible bacterial growth incubated for 18 hrs by broth microdilution method. The format is functional.
The test system of data set [12] is Streptococcus pneumoniae. As to the kind of experiment: Antibacterial activity against erythromycin-resistant Streptococcus pneumoniae SPN19-14 assessed as inhibition of visible bacterial growth incubated for 18 hrs by broth microdilution method. The format is functional.
The test system of data set [13] is Staphylococcus epidermidis. The experiment in a line: Antibacterial activity against erythromycin-resistant Staphylococcus epidermidis 19-4 assessed as inhibition of visible bacterial growth incubated for 18 hrs by broth microdilution method. Format: functional.
Data set [14] has as its system Staphylococcus epidermidis. The experiment in a line: Antibacterial activity against erythromycin-resistant Staphylococcus epidermidis 19-8 assessed as inhibition of visible bacterial growth incubated for 18 hrs by broth microdilution method. The format is functional.
Data set [15] is described as follows: Cytotoxicity against mouse AML12 cells assessed as reduction in cell viability incubated for 48 hrs by MTT assay. Format: toxicity, cell-based. (In general: Tetrazolium assays rely on reduction of a dye to a coloured formazan, in cell work by metabolically active cells.)
The subject of data set [16] is Staphylococcus epidermidis. As to the kind of experiment: Antibacterial activity against erythromycin-resistant Staphylococcus epidermidis 19-11 assessed as inhibition of visible bacterial growth incubated for 18 hrs by broth microdilution method. Format: functional.
In data set [17] the test system is Moraxella catarrhalis. As to the kind of experiment: Antibacterial activity against Moraxella catarrhalis BCA 19-6 assessed as inhibition of bacterial growth incubated for 24 hrs by CLSI based broth microdilution method. The format is functional. Conditions: Moraxella catarrhalis, BCA 19-6, 24 h, read-out: MIC.
Data set [18] concerns Moraxella catarrhalis. The experiment in a line: Antibacterial activity against Moraxella catarrhalis BCA 19-31 assessed as inhibition of bacterial growth incubated for 24 hrs by CLSI based broth microdilution method. Format: functional. As to conditions: BCA 19-31, 24 h.

One may read the CC50 as the concentration that lowers cell viability or growth by half. `CC[C@H]1OC(=O)[C@@](C)(F)C(=O)[C@H](C)[C@@H](O[C@@H]2O[C@H](C)C[C@H](N(C)C)[C@H]2O)[C@](C)(OC)C[C@@H](C)C(=O)[C@H](C)[C@H]2N(CCCOC(=O)Nc3cccc(Cl)c3)C(=O)O[C@]12C`: the MIC was 0.125 µg/mL (≈ 0.148 µM) in data set [1]; under 0.03 µg/mL in data set [2]; 16 µg/mL (≈ 19 µM) in [3]; 0.125 µg/mL (≈ 0.148 µM) in [4]; 0.125 µg/mL (≈ 0.148 µM) in data set [5]; 0.125 µg/mL (≈ 0.148 µM) in data set [6]. Besides, the MIC in data set [7] is 0.5 µg/mL (≈ 0.594 µM); in data set [8], under 0.03 µg/mL; in data set [9] it was 4 µg/mL (≈ 4.75 µM); in data set [10], 8 µg/mL (≈ 9.5 µM); in data set [11], under 0.03 µg/mL; in data set [12], 0.125 µg/mL (≈ 0.148 µM). In addition, the MIC in [13] is 0.03 µg/mL (≈ 0.0356 µM); in data set [14], under 0.03 µg/mL; in data set [16], under 0.03 µg/mL; in data set [17], 2.25 µg/mL (≈ 2.67 µM). For the same compound, the CC50 at 48 h in data set [15] is 43.3 µM.
Consider `CC[C@H]1OC(=O)[C@@](C)(F)C(=O)[C@H](C)[C@@H](O[C@@H]2O[C@H](C)C[C@H](N(C)C)[C@H]2O)[C@](C)(OC)C[C@@H](C)C(=O)[C@H](C)[C@H]2N(CCCOC(=O)Nc3ccc(Cl)cc3C)C(=O)O[C@]12C`, for which the MIC in [1] is 0.125 µg/mL (≈ 0.146 µM); in data set [2], 0.125 µg/mL (≈ 0.146 µM); in data set [3], 16 µg/mL (≈ 18.7 µM); in data set [4], under 0.03 µg/mL; in data set [5], 0.25 µg/mL (≈ 0.292 µM); in data set [6], 0.125 µg/mL (≈ 0.146 µM). Moreover, the MIC in data set [7] was 0.5 µg/mL (≈ 0.584 µM); in data set [8] it was under 0.03 µg/mL; in data set [18], 0.125 µg/mL (≈ 0.146 µM); in data set [9], 4 µg/mL (≈ 4.67 µM); in data set [10], 8 µg/mL (≈ 9.34 µM); in [11] it was under 0.03 µg/mL. The MIC in [12] turned out to be 0.125 µg/mL (≈ 0.146 µM); in data set [13], 0.03 µg/mL (≈ 0.035 µM); in data set [14], 0.125 µg/mL (≈ 0.146 µM); in data set [16], 0.06 µg/mL (≈ 0.0701 µM); in [17], 0.25 µg/mL (≈ 0.292 µM). Besides, the cytotoxic concentration (CC50) at 48 h in [15] amounted to 12.8 µM.
As to `CC[C@H]1OC(=O)[C@@](C)(F)C(=O)[C@H](C)[C@@H](O[C@@H]2O[C@H](C)C[C@H](N(C)C)[C@H]2O)[C@](C)(OC)C[C@@H](C)C(=O)[C@H](C)[C@H]2N(CCCOC(=O)Nc3ccc(-c4ncccn4)cc3)C(=O)O[C@]12C`, the MIC in data set [1] is 0.25 µg/mL (≈ 0.282 µM); in [2] it was 0.125 µg/mL (≈ 0.141 µM); in data set [3] it was over 16 µg/mL; in data set [4], 0.125 µg/mL (≈ 0.141 µM); in data set [5], 0.25 µg/mL (≈ 0.282 µM); in [6], 0.5 µg/mL (≈ 0.564 µM). Also, the MIC in data set [7] is 4 µg/mL (≈ 4.51 µM); in data set [8], under 0.03 µg/mL; in data set [18], 0.25 µg/mL (≈ 0.282 µM); in data set [9], 16 µg/mL (≈ 18.1 µM); in data set [10], 14 µg/mL (≈ 15.8 µM); in data set [11] it was under 0.03 µg/mL. Besides, the MIC in data set [12] was 0.25 µg/mL (≈ 0.282 µM); in data set [13], 0.06 µg/mL (≈ 0.0677 µM); in [14], 0.125 µg/mL (≈ 0.141 µM); in [16], under 0.03 µg/mL; in data set [17] it was 45 µg/mL (≈ 50.8 µM). For the same compound, the CC50 at 48 h in data set [15] was found to be 20.4 µM.
Regarding `CC[C@H]1OC(=O)[C@@](C)(F)C(=O)[C@H](C)[C@@H](O[C@@H]2O[C@H](C)C[C@H](N(C)C)[C@H]2O)[C@](C)(OC)C[C@@H](C)C(=O)[C@H](C)[C@H]2N(CCCOC(=O)Nc3cc(C)ccc3C)C(=O)O[C@]12C`, the MIC is 0.125 µg/mL (≈ 0.15 µM) in data set [1]; 16 µg/mL (≈ 19.1 µM) in data set [3]; 0.125 µg/mL (≈ 0.15 µM) in [18]; 8 µg/mL (≈ 9.57 µM) in [9]; 8 µg/mL (≈ 9.57 µM) in [10]; 0.125 µg/mL (≈ 0.15 µM) in [17]. Further, the CC50 at 48 h in [15] worked out at 33.1 µM.
As for `CC[C@H]1OC(=O)[C@@](C)(F)C(=O)[C@H](C)[C@@H](O[C@@H]2O[C@H](C)C[C@H](N(C)C)[C@H]2O)[C@](C)(OC)C[C@@H](C)C(=O)[C@H](C)[C@H]2N(CCCOC(=O)Nc3ccc(Cl)cc3)C(=O)O[C@]12C`, the MIC is 9.12 µg/mL (≈ 10.8 µM) in data set [1]; under 0.03 µg/mL in [2]; 16 µg/mL (≈ 19 µM) in data set [3]; 0.125 µg/mL (≈ 0.148 µM) in data set [4]; 0.25 µg/mL (≈ 0.297 µM) in data set [5]; 0.125 µg/mL (≈ 0.148 µM) in data set [6]. In addition, the MIC was 1 µg/mL (≈ 1.19 µM) in data set [7]; under 0.03 µg/mL in data set [8]; 11.1 µg/mL (≈ 13.2 µM) in data set [18]; 8 µg/mL (≈ 9.5 µM) in data set [9]; 8 µg/mL (≈ 9.5 µM) in [10]; under 0.03 µg/mL in data set [11]. Also, the MIC in data set [12] is 0.125 µg/mL (≈ 0.148 µM); in [13] it was 0.03 µg/mL (≈ 0.0356 µM); in data set [14], 0.03 µg/mL (≈ 0.0356 µM); in data set [16], under 0.03 µg/mL; in [17] it was 0.25 µg/mL (≈ 0.297 µM). The CC50 at 48 h in data set [15] came out at 26 µM.
